Source: patent US20230265068A1, “TRANSIENT RECEPTOR POTENTIAL CANONICAL 3 INHIBITORS AND METHODS OF USE THEREOF” (University of Tennessee Research Foundation, priority 2020, published 2023)

Assays:
rTRPV4 = target: T1, rTRPV4 (Rattus norvegicus, UniProt Q9ERZ8); test: whole-cell patch clamp selectivity, HEK 293 cells overexpressing rTRPV4; type: cell-based; conditions: HEK293, with agonist, solutions without Ca2+, read-out: % of the current of rTRPV4 inhibited
T1 construct: expressed in transfected cells; host or cells: HEK293, transient transfection, pMO vector
Description: (§1) Human embryonic kidney 293 (HEK293; catalog number CRL-1573) cells were cultured in Dulbecco's modified Eagle's medium (Invitrogen) supplemented with 10% fetal bovine serum and 1% penicillin-streptomycin at 37° C. and 5% CO2. Constructs cloned in pMO (a pcDNA3-modified vector) were co-transfected with GFP-pMO, using Lipofectamine 2000 (Invitrogen) according to the manufacturer's instructions. Macroscopic currents in the whole-cell patch clamp configuration were recorded 18-24 h post-transfection. The extracellular solution contained 140 mM NaCl, 6 mM KCl, 2 mM MgCl2, 10 mM HEPES, and 10 mM glucose (pH 7.4). Pipettes were made of borosilicate glass (outer diameter, 1.5 mm; inner diameter, 1.10 mm; Sutter Instruments) and fire-polished with a resistance between 2.8 and 4.0 megaohms when filled with an intracellular solution that contained 140 mM CsCl, 5 mM EGTA, and 10 mM HEPES, pH 7.2. Currents were recorded with a Multiclamp 700B amplifier (Molecular Devices) using a 1-s ramp from −100 to 100 mV. […] Data were acquired with a sampling rate of 20 kHz, low-pass filtered (10 kHz), and analyzed offline using Clampfit v10.4.2.0 (Molecular Devices). […]

hTRPA1 = target: T2, hTRPA1 (Homo sapiens, UniProt O75762); test: whole-cell patch clamp selectivity, HEK 293 cells overexpressing hTRPA1; type: cell-based; conditions: HEK293, with agonist, solutions without Ca2+, read-out: % of the current of hTRPA1 inhibited
T2 construct: expressed in transfected cells; host or cells: HEK293, transient transfection, pMO vector
Description: as §1

hippocampal neurons = test: neuroprotection against Aβ-containing conditioned medium (7PA2) in primary hippocampal neurons; type: cell-based, rat; conditions: 14 DIV neurons, 7PA2 medium, 16 hours, different concentrations
Description: To visualize dendritic spines, 14 DIV hippocampal neurons at low density (5,000 cells per 35 mm dish) were exposed to 7PA2 conditioned media (CM), which contains naturally secreted Aβ, or CHO control media or for 16 h, with or without cotreatment with the two inhibitor compounds, followed by immunocytochemistry with MAP2 and DAPI counterstaining.
To explore the potential biological effects of compound 22 in a TRPC3 related disease model, its neuroprotective ability in primary cultured neurons (14 DIV prepared from E17 rats as described) was evaluated. The effects on neuron dendritic morphology were measured by imaging. Mature hippocampal neurons (DIV=14) were treated with CHO control medium, or naturally secreted Aβ-containing conditioned medium (7PA2), or in combination with compound 22 or Pyr3 at different concentrations, for 16 hours, followed by immunocytochemistry using an antibody against MAP2 and DAPI (data not shown). […] Hippocampal neurons (DIV=14) were treated with compound 22 or Pyr3 alone at different concentrations, followed by immunocytochemistry staining with MAP2 and DAPI (data not shown).

[1] = metabolic stability in mouse liver microsomes; type: in vitro ADME; conditions: mouse, microsomes
Description: The metabolic stability of compound 22 was tested prior to the next phase of in vivo study. […] The maximum tolerated dose (MTD) study was subsequently performed to investigate its in vivo toxicity (FIGS. 4A and 4B). The second major limitation of Pyr3 is its toxicity due to its alkylating tail moiety. While replacing only the fast-metabolizing head ester group in Pyr3 with a stable amide (compound 79) improved metabolic stability, a single IP injection of compound 79 at 200 mg/kg killed all mice within 24 h.

[2] = brain permeability and half-life after systemic administration in C57BL/6 mice; type: in vivo
Description: The brain permeability of compound 22 was evaluated with systemic administration (20 mg/kg, i.v.) in C57BL/6 mice. Blood samples were collected at nine time points after compound administration: 5 min, 15 min, 30 min, 1 hr, 2 hr, 4 hr, 8 hr, 16 hr, and 24 hr. Brain homogenates were then extracted and analyzed for concentrations of compound 22 by liquid chromatography-mass spectrometry (LC-MS). The half-life (T½) in the brain was calculated by GraphPad Prism software.

T1 sequence (Q9ERZ8 whole entry): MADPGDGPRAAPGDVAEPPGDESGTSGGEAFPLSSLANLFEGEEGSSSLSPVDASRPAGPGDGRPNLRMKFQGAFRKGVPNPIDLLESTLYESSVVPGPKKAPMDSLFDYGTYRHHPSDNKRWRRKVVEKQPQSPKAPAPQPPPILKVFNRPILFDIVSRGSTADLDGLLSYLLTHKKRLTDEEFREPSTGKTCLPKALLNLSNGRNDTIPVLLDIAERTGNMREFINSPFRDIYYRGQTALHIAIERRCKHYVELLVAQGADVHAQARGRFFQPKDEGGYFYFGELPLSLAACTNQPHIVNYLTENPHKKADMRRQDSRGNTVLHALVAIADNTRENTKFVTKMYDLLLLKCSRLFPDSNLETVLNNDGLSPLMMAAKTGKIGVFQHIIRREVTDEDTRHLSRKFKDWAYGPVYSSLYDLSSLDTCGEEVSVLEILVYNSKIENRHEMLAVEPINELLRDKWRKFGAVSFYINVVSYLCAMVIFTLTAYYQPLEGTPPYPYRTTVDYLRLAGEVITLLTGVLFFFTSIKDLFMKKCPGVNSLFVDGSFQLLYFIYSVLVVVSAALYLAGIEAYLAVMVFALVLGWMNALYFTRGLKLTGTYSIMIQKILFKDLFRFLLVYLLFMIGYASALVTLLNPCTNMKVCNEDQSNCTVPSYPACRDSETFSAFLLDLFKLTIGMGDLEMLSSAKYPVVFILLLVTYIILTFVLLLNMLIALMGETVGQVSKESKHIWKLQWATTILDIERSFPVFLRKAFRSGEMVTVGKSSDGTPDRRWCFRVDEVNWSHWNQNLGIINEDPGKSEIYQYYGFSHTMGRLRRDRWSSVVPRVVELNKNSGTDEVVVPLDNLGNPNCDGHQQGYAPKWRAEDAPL
T2 sequence (O75762 whole entry): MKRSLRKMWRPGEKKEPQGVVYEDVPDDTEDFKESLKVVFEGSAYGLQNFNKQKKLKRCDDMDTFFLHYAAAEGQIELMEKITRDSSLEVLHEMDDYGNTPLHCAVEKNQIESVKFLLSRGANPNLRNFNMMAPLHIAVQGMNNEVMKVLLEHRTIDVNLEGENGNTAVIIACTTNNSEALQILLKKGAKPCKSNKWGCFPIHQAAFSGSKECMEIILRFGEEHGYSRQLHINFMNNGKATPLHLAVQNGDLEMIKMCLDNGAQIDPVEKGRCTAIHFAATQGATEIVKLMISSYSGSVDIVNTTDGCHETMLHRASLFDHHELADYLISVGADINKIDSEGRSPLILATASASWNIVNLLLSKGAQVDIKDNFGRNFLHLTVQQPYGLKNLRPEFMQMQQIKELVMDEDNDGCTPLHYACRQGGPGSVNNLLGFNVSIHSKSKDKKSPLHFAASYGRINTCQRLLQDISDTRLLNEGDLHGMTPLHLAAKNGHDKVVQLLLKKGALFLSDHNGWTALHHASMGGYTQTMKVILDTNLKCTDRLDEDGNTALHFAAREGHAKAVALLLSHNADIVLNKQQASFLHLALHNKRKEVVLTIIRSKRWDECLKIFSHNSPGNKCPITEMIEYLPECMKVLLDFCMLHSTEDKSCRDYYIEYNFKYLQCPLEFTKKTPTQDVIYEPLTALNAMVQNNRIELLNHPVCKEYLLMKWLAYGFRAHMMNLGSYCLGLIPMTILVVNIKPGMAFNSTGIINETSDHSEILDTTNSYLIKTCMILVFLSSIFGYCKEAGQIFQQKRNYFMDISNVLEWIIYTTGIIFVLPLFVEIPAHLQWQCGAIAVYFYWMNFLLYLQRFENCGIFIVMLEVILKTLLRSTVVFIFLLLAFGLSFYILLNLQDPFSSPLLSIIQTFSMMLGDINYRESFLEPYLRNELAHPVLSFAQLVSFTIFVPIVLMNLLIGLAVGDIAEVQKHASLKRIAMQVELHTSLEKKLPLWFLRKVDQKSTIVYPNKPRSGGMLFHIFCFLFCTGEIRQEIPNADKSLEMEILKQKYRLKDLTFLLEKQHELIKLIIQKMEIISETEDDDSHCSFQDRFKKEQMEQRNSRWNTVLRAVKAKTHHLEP

CCNC(=O)c1cnn(-c2ccc(-n3ccc(Cl)c(Cl)c3=O)cc2)c1C(F)(F)F [Compound 22]
inhibition at 10 µM (rTRPV4): < 5%
inhibition at 10 µM (hTRPA1): < 5%
protection against Aβ-induced damage to dendrites (MAP2/DAPI) (hippocampal neurons): protect against Aβ-induced damage to dendrites
half-life [1]: > 4 h
Kp at 1 h ([2]; C57BL/6, mouse, brain/plasma, iv, 20 mg/kg, i.v., 1 h after injection, read-out: brain-to-plasma ratio): ~0.15
half-life ([2]; C57BL/6, mouse, plasma, iv, 20 mg/kg, i.v., read-out: plasma T½ (converted)): ~4 h
duration of brain concentration above TRPC3 IC50 ([2]; one-dose injection): 18 to 20 h
